Test results as given in article PMC6853638, “TMC1 is an essential component of a leak channel that modulates tonotopy and excitability of auditory hair cells in mice” (eLife, 2019).
Several values for one entry are separate records, joined by “and”; a condition that tells them apart may be missing. Equal values may be shown once. Read-outs that look alike come from different tables or passages of the source.

Tests used:
Type in all cases: cell-based
[1] = molecular target: T1, MET channel (Mus musculus, UniProt Q8R4P5); assay: MET current (IMET) inhibition by blockers, whole-cell voltage clamp of OHCs with glass-probe hair-bundle deflection
T1 construct: the basilar membrane with hair cells was acutely dissected from neonatal mice; endogenous in cells; host or cells: outer hair cells of acutely dissected neonatal mouse cochlea
T1 sequence (Q4KL25 whole entry partner, one chain of several): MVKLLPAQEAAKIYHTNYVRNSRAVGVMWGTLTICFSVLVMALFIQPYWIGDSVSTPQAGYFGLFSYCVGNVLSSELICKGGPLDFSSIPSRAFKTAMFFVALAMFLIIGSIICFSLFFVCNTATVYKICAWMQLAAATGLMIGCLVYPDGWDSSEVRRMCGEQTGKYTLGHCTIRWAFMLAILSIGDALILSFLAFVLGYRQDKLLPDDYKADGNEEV
T1 sequence (Q8K467 29-153 partner, one chain of several): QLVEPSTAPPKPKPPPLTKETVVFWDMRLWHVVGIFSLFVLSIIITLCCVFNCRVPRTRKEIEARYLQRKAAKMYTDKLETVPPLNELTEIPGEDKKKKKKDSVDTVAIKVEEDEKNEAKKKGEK
T1 sequence (Q9Z309 whole entry partner, one chain of several): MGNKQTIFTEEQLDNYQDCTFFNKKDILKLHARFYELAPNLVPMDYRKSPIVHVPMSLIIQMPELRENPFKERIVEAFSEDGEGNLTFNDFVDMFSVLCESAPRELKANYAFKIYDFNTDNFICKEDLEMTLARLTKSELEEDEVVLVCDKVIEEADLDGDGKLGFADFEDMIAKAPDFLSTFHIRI
Protocol: All experiments were performed at room temperature (20–25°C). Briefly, the basilar membrane with hair cells was acutely dissected from neonatal mice. […] The acutely isolated or cultured basilar membrane was used for electrophysiological recording within 1 h. […] Hair cells were recorded with a patch-clamp amplifier (EPC 10 USB and Patchmaster software, HEKA Elektronik, Lambrecht/Pfalz, Germany).
(§1) The sampling rate was 1 kHz for leak current recording, 50 kHz for the IV protocol and current-clamp recording, and 100 kHz for unitary channel recording. The voltage-clamp used a –70 mV holding potential, and the current-clamp was held at 0 pA. Only recordings with a current baseline <20 pA in NMDG solution were used for statistical analysis.
The hair bundle was deflected by two types of mechanical stimulus, fluid jet and glass probe. […] In brief, a 40 Hz sinusoidal wave stimulus was delivered by a 27-mm-diameter piezoelectric disc driven by a home-made piezo amplifier pipette with a tip diameter of 3–5 μm positioned 5–10 μm from the hair bundle to evoke maximum MET currents. […] The actuator was driven with voltage steps that were low-pass filtered at 10 KHz. To avoid bundle damage caused by overstimulation, the glass probe was shaped to have a slightly smaller diameter than the hair bundles, and the stimulation distance was 800 nm for macroscopic current and 100 nm for unitary channel recording. For hair bundle removal, a pipette with 1 μm diameter tip was used to suck away the hair bundles of the target OHCs. The hair-bundle-removed OHCs with good condition were further recorded. Examined by a fluid-jet stimulation, the OHCs without obvious MET current were further measured for the leak current.
(§2) Dose-inhibition curves were fitted with a Hill equation: Ix/Imax=X^h/(K^h+X^h))
(§3) Where K is the half-inhibition dose (IC50) and h is the Hill slope. Imax is the maximal current in control condition.

[2] = molecular target: T2, TMC1-mediated leak conductance (Mus musculus, UniProt Q8R4P5); assay: Background/leak current (IBG) inhibition by blockers, whole-cell voltage clamp of OHCs
T2 sequence (Q8R4P5 1-757): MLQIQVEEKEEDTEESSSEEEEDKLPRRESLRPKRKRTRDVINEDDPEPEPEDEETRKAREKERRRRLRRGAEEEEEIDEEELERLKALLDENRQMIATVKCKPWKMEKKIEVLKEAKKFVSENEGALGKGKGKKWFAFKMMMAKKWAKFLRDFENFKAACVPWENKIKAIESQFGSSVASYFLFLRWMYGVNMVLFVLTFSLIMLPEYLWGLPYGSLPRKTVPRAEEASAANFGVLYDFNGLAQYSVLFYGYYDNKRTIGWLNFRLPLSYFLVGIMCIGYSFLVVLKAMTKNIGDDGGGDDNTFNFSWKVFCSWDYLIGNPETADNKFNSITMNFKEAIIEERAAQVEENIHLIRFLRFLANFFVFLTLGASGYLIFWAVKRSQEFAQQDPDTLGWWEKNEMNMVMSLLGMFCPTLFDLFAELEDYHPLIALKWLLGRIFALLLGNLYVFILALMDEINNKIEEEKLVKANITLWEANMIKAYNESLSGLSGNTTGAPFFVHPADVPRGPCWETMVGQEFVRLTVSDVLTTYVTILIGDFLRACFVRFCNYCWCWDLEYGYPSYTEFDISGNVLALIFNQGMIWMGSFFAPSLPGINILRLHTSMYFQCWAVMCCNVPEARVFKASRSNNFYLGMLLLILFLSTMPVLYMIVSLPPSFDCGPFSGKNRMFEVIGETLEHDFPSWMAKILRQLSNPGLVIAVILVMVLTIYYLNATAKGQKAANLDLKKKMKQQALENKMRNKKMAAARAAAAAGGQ
Protocol: Hair cells were recorded using whole-cell voltage or current clamp as previously described ([Xiong et al., 2012]). All experiments were performed at room temperature (20–25°C). Briefly, the basilar membrane with hair cells was acutely dissected from neonatal mice. […] The acutely isolated or cultured basilar membrane was used for electrophysiological recording within 1 h. Hair cells were imaged under an upright microscope (BX51WI, Olympus, Tokyo, Japan) with a 60 × water immersion objective and an sCMOS camera (ORCA Flash4.0, Hamamatsu, Hamamatsu City, Japan) controlled by MicroManager 1.6 software ([Edelstein et al., 2010]). Patch pipettes were made from borosilicate glass capillaries (BF150-117-10, Sutter Instrument Co., Novato, CA) with a pipette puller (P-2000, Sutter) and polished on a microforge (MF-830, Narishige, Tokyo, Japan) to resistances of 4–6 M'Ω. […] Hair cells were recorded with a patch-clamp amplifier (EPC 10 USB and Patchmaster software, HEKA Elektronik, Lambrecht/Pfalz, Germany).
as §1, §2, §3

[3] = molecular target: T3, TMC1-mediated leak current (Mus musculus, UniProt Q8R4P5); assay: MET-independent leak current (ILeak) in OHCs, MET channel closed by fluid jet or 100 μM DHS, NMDG subtraction (also by cochlear location and age); conditions: 0.3 mM Ca2+
T3 construct: the basilar membrane with hair cells was acutely dissected from neonatal mice; endogenous in cells; host or cells: outer hair cells of acutely dissected neonatal mouse cochlea
T3 sequence (Q8R4P5 1-757): T2 sequence (Q8R4P5 1-757)
Protocol: Thus, the IBG may come from the resting MET current. […] A sinusoidal fluid jet deflected the hair bundle back and forth to open and close the MET channels (Figure 3A, inset). The Im was 98 pA at rest (Figure 3A,B), while the Im was 45 pA at fluid-jet-closed status (Figure 3B, #1). […] Thus, the ILeak persisted in either mechanical closure or pharmacological blockade of the MET channel (Figure 3C).
Hair cells were recorded using whole-cell voltage or current clamp as previously described ([Xiong et al., 2012]). All experiments were performed at room temperature (20–25°C). Briefly, the basilar membrane with hair cells was acutely dissected from neonatal mice. […] The acutely isolated or cultured basilar membrane was used for electrophysiological recording within 1 h. Hair cells were imaged under an upright microscope (BX51WI, Olympus, Tokyo, Japan) with a 60 × water immersion objective and an sCMOS camera (ORCA Flash4.0, Hamamatsu, Hamamatsu City, Japan) controlled by MicroManager 1.6 software ([Edelstein et al., 2010]). Patch pipettes were made from borosilicate glass capillaries (BF150-117-10, Sutter Instrument Co., Novato, CA) with a pipette puller (P-2000, Sutter) and polished on a microforge (MF-830, Narishige, Tokyo, Japan) to resistances of 4–6 M'Ω. Intracellular solution contained (in mM): 140 CsCl, 1 MgCl2, 0.1 EGTA, 2 Mg-ATP, 0.3 Na-GTP, and 10 H-HEPES, pH 7.2), except when CsCl was replaced with KCl in current-clamp. Hair cells were recorded with a patch-clamp amplifier (EPC 10 USB and Patchmaster software, HEKA Elektronik, Lambrecht/Pfalz, Germany).
The sampling rate was 1 kHz for leak current recording, 50 kHz for the IV protocol and current-clamp recording, and 100 kHz for unitary channel recording. The voltage-clamp used a –70 mV holding potential, and the current-clamp was held at 0 pA. […]
The hair bundle was deflected by two types of mechanical stimulus, fluid jet and glass probe. […] The hair-bundle-removed OHCs with good condition were further recorded. Examined by a fluid-jet stimulation, the OHCs without obvious MET current were further measured for the leak current.

SMILES: COc1cc2c3cc1Oc1cc(ccc1O)C[C@@H]1c4c(cc(OC)c(O)c4Oc4ccc(cc4)C[C@@H]3N(C)CC2)CC[N+]1(C)C [dTC, d-tubocurarine]
- IC50 [1]: 6 µM
- Leak nor ([2]; dTC 0.01): 1.062 and 1.003 and 1.024 and 0.9706 and 0.8444 and 0.8511 and 0.9123
- effect on the leak current compared with the MET current ([2]; graded concentrations): affected the leak current, albeit at higher concentrations than the MET current
- IC50 ([2]; read-out: IC50, IBG (leak conductance); OHCs, […] Ca2+, holding −70 mV, Hill fit): 82 µM

SMILES: [La+3] [La3+]
- met (normalized) ([1]; La3+ 4000): 0.01513 and 0.01398 and 0.02694 and 0.01393 and 0.02154 and 0.01619 and 0.02515

SMILES: [Cl][Gd]([Cl])[Cl] [Gd^3+, GdCl3]
- effect on the leak current ([2]; [Gd3+]o up to 80 μM): not affected

SMILES: CN[C@@H]1[C@H](O[C@H]2[C@H](O[C@H]3[C@H](O)[C@@H](O)[C@H](NC(=N)N)[C@@H](O)[C@@H]3NC(=N)N)O[C@@H](C)[C@]2(O)CO)O[C@@H](CO)[C@H](O)[C@H]1O [DHS, dihydrostreptomycin]
- IC50 ([1]; read-out: IC50, IMET): 15 µM
- blocking effect on the current baseline ([2]; 100 μM, working concentration that blocks MET channels): no blocking effect
- Leak (normalized) ([2]; DHS 100 μM): 0.7251 and 0.66 and 1.086 and 0.62 and 0.8723 and 0.8832 and 0.9258
- IC50 ([2]; OHCs, […] Ca2+, holding −70 mV, Hill fit; read-out: IC50, IBG (leak conductance)): 487 µM
- DHS-NMDG (ILeak subtracted from that closed by 100 μM DHS), mean ± SEM ([3]; holding −70 mV): –65 ± 6 pA
- membrane current in 144 Na + 0.1 DHS (IDHS) ([3]; holding −70 mV): 55 pA
- DHS-NMDG subtracted current, individual cells ([3]; source data of Figure 3C): -80.6086 pA and -48.8286 pA and -49.155 pA and -61.767 pA and -98.5004 pA and -60.6081 pA and -57.9458 pA and -59.6138 pA
